{"source": "patent US20160252494A1", "about": "“MICROSCALE MICROPATTERNED ENGINEERED IN VITRO TISSUE” (priority 2005, published 2016)", "key": {"CYP2A6 [1]": {"test_system": "CYP2A6", "quoted_text": "The reactions were stopped by collection of the incubation medium. Then, potential metabolite conjugates formed via Phase II activity were hydrolyzed by incubation of supernatants with β-glucuronidase/arylsulfatase (Roche, IN) for 2 hours at 37° C. Samples were diluted 1:1 in quenching solution and fluorescent metabolite formation was quantified by means of a fluorescence micro-plate reader (Molecular Devices, Sunnyvale, Calif.) as described elsewhere in detail. Production of 7-HC from CM is a reaction (CM 7-Hydroxylation) mediated by CYP2A6 in humans, production of 7-HFC from BFC or MFC (dealkylation) is mediated by several different CYP450s, and production of RR from ER (ER Odealkylation) is mediated by CYP1A2.\nCytochrome-P450 Induction. Stock solutions of prototypic CYP450 inducers (Sigma) were made in dimethylsulfoxide (DMSO), except for Phenobarbital, which was dissolved in water. Cultures were treated with inducers (Rifampin 25 μM, β-Naphthoflavone 30 μM or 50 μM, Phenobarbital 1 mM, Omeprazole 50 μM) dissolved in hepatocyte culture medium for 4 days. Control cultures were treated with vehicle (DMSO) alone for calculations of fold induction. To enable comparisons across inducers, DMSO levels were kept constant at 0.06% (v/v) for all conditions."}, "CYP2B [2]": {"test_system": "CYP2B", "experiment": "CYP2B protein induction in static and perfused bioreactor hepatocyte cultures"}, "CYP3A [3]": {"test_system": "CYP3A", "experiment": "CYP3A protein induction in static and perfused bioreactor hepatocyte cultures"}, "CYP2B [4]": {"test_system": "CYP2B"}, "CYP3A [5]": {"test_system": "CYP3A", "details": "hepatocytes"}, "[6]": {"test_system": "micropatterned human co-cultures (primary human hepatocytes with 3T3-J2 fibroblasts)", "details": "MTT", "method": "Cultures were incubated with various concentrations of compounds dissolved in culture medium for 24 hours (acute toxicity) or extended time periods (chronic toxicity, 1-4 days). Cell viability was subsequently measured via the MTT (3-(4,5-dimethylthiazol-2-yl)-2,5-diphenyl tetrazolium bromide; Sigma) assay, which involves cleavage of the tetrazolium ring by mitochondrial dehydrogenase enzymes to form a purple precipitate. MTT was added to cells in DMEM without phenol red at a concentration of 0.5 mg/mL. After an incubation time of 1 hour, the purple precipitate was dissolved in a 1:1 solution of DMSO and Isopropanol. The absorbance of the solution was measured at 570 nm (SpectraMax spectrophotometer, Molecular Devices, Sunnyvale, Calif.).\nUse of optimized micropatterned human co-cultures to evaluate metabolism and toxicity of xenobiotics. […] Acute toxicity tests involved incubating eight day old co-cultures for 24 hrs with various drugs, some with known clinical hepatotoxic potential. After the incubation time period, the cell culture medium was aspirated and a viability assay was conducted (MTT assay—commercially available). […]\nTo assess utility of the microscale human liver tissue for toxicity assays, the acute and chronic toxicity of model hepatotoxins were quantified. […]"}, "CYP1A2 [7]": {"test_system": "CYP1A2", "details": "human and rat, 4 days, 50 µM"}, "CYP1A2 [8]": {"test_system": "CYP1A2", "experiment": "Induction of CYP1A2 activity in microscale liver tissues (ethoxyresorufin dealkylation)", "details": "incubation 1 or 3 days, varying dose"}, "CYP2A6 [9]": {"target": "T1, CYP2A6 (Homo sapiens, UniProt P11509)", "T1 sequence (P11509 1-494)": "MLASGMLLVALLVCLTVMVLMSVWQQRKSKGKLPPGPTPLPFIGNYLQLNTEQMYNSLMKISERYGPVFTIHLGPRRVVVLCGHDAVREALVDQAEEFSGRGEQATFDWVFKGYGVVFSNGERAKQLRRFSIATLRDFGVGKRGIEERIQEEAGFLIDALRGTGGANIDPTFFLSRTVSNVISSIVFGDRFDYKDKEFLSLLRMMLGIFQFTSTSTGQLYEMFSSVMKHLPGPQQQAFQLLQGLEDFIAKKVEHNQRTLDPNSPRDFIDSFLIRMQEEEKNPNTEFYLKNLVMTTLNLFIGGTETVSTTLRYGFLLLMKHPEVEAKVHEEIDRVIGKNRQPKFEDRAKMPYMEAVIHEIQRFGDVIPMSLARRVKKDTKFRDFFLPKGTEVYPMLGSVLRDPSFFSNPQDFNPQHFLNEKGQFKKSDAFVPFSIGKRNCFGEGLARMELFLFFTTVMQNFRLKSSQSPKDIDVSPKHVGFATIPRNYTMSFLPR", "quoted_text": "Mitochondrial activity was measured using the MTT assay. All data was normalized to vehicle-only controls. […] ER, Ethoxy-resorufin. […] Error bars represent standard error of the mean (n=3).\nThe reactions were stopped by collection of the incubation medium. Then, potential metabolite conjugates formed via Phase II activity were hydrolyzed by incubation of supernatants with β-glucuronidase/arylsulfatase (Roche, IN) for 2 hours at 37° C. Samples were diluted 1:1 in quenching solution and fluorescent metabolite formation was quantified by means of a fluorescence micro-plate reader (Molecular Devices, Sunnyvale, Calif.) as described elsewhere in detail."}, "[10]": {"details": "treated 4 days with prototypic inducers"}, "[11]": {"details": "static cultures, 48 hour induction"}}, "note": "Read-outs that look alike come from different tables or passages of the source."}
{"compound": "CCC1(c2ccccc2)C(=O)NC(=O)NC1=O", "note": "[Phenobarbital]", "values": [{"measurement": "CYP2A6 induction", "setting": "CYP2A6 [1]; [10]", "value": "induction was observed"}, {"measurement": "CYP2B expression", "setting": "CYP2B [2]; perfused cultures, 36 hours", "value": "Dramatic expression of both CYPs over controls"}, {"measurement": "CYP2B expression", "setting": "CYP2B [2]; [11]", "value": "moderate"}, {"measurement": "CYP3A expression", "setting": "CYP3A [3]; perfused cultures, 36 hours", "value": "Dramatic expression of both CYPs over controls"}, {"measurement": "CYP3A expression", "setting": "CYP3A [3]; [11]", "value": "low"}]}
{"compound": "C[C@@H]1C[C@H]2[C@@H]3CCC4=CC(=O)C=C[C@]4(C)[C@@]3(F)[C@@H](O)C[C@]2(C)[C@@]1(O)C(=O)CO", "note": "[DEX, dexamethasone]", "values": [{"measurement": "CYP2B induction", "setting": "CYP2B [4]", "value": "high levels"}]}
{"compound": "CO[C@H]1/C=C/O[C@@]2(C)Oc3c(C)c(O)c4c(O)c(c(/C=N/N5CCN(C)CC5)c(O)c4c3C2=O)NC(=O)/C(C)=C\\C=C\\[C@H](C)[C@H](O)[C@@H](C)[C@@H](O)[C@@H](C)[C@H](OC(C)=O)[C@@H]1C", "note": "[Rifampin]", "values": [{"measurement": "CYP2A6 induction", "setting": "CYP2A6 [1]", "value": "induction was observed"}]}
{"compound": "EGF: epidermal growth factor, added to perfusion media with PB or DEX", "values": [{"measurement": "Effect on DEX-induced CYP2B", "setting": "CYP2B [4]", "value": "significant shift in CYP2B spatial distribution was noted from inlet regions to the outlet"}, {"measurement": "Effect on DEX-induced CYP3A induction", "setting": "CYP3A [5]", "value": "remained uniform"}]}
{"compound": "[Cl][Cd][Cl]", "note": "[Cadmium, Cadmium chloride]", "values": [{"measurement": "Relative acute toxicity in vitro", "setting": "[6]; 24 hrs incubation", "value": "severely toxic"}, {"measurement": "Shape of dose-dependent toxicity profile", "setting": "[6]; acute exposure 24 hours", "value": "relatively linear toxic profile"}]}
{"compound": "COc1ccc2[nH]c([S+]([O-])Cc3ncc(C)c(OC)c3C)nc2c1", "note": "(stereo not shown) [Omeprazole]", "values": [{"measurement": "CYP2A6 induction", "setting": "CYP2A6 [1]", "value": "weaker effects"}, {"measurement": "Effectiveness of CYP1A2 induction in human over rat models", "setting": "CYP1A2 [7]", "value": 8, "unit": "fold"}]}
{"compound": "O=c1cc(-c2ccccc2)oc2ccc3ccccc3c12", "note": "[β-Naphthoflavone]", "values": [{"measurement": "CYP2A6 induction", "setting": "CYP2A6 [1]; [10]", "value": "weaker effects"}, {"measurement": "Induction of CYP1A2 activity", "setting": "CYP1A2 [8]", "value": "dose and time-dependent manner"}]}
{"compound": "COc1c2occc2cc2ccc(=O)oc12", "note": "[methoxsalen, Methoxsalen]", "values": [{"measurement": "Inhibition of CYP2A6 activity", "setting": "CYP2A6 [9]", "value": "dose-dependent inhibition"}]}
